Drawing on DBAASP, this text covers MIC for one compound.

Each structure is given as a SMILES string. ≈ marks a conversion by molar mass, not a printed value.

Experiment in all cases: ≥ marks a high value that may be exact or a test limit, other limits are often not marked, values filed in µg/mL are converted to µM
Experiment [1] concerns Staphylococcus aureus FDA 209P JC-1.
Experiment [2] deals with Bacillus subtilis ATCC 6633.
The next experiment deals with Candida albicans.
Experiment [3] has as its system Escherichia coli NIHJ JC-2.

The MIC is the lowest concentration that inhibits growth of the organism. In the case of `CC[C@H](C)[C@H](NC(=O)CNC(=O)[C@H](C)NC(=O)[C@H](CC(C)C)NC(=O)[C@@H](NC(=O)[C@@H]1CCCN1C(=O)[C@H](CC(C)C)NC(=O)[C@@H](N)Cc1ccccc1)C(C)C)C(=O)N[C@@H](C)C(=O)N[C@@H](C)C(=O)N[C@@H](CCCCN)C(=O)N[C@H](C(=O)N[C@H](C(=O)N1CCC[C@H]1C(=O)N[C@@H](C)C(=O)N[C@@H](CC(C)C)C(=O)N[C@@H](Cc1ccccc1)C(=O)N[C@H]1CSSC[C@@H](C(=O)O)NC(=O)[C@H](CCCCN)NC(=O)[C@H](CCCCN)NC(=O)[C@H]([C@@H](C)O)NC(=O)[C@H]([C@@H](C)CC)NC(=O)[C@H](CCCCN)NC1=O)C(C)C)C(C)C` [FLPVLAGIAAKVVPALFCKITKKC], the MIC was 3.16 µM (≈ 7.99 µg/mL) in experiment [1], 0.79 µM (≈ 2 µg/mL) in experiment [2], over 51.4 µM against Candida albicans and 13.4 µM (≈ 34 µg/mL) in experiment [3].
